Assay results published in patent US11014908B2, “Chemical compounds” (Pfizer Inc., priority 2018, dated 2021).

Columns and labels:
[1] = Single dose study in sickle Townes mice: exposure in whole blood; assay type: in vivo; conditions: male, Townes (sickle cell disease model), mouse, SCD mice, n=3
Description: (§1) In Vivo Studies Mouse Model
(§2) The effect of the compounds of the invention was evaluated in-male sickle Townes mice in a single dose study. Compounds of the invention were administered in amounts set out in Tables 7, 8 and 9 that follow by oral gavage. Control mice received vehicle. Blood (50 μL) was drawn at 0.5 h, 1 h, 4 h, 7 h, 10 h, and 24 h. To measure exposure in whole blood, 20 μL sample was used. Blood drawn at 0.5 h was also evaluated for cell sickling.

Townes SCD mice = experiment: Chronic dosing study (BID, 15 days) in Townes SCD mice; assay type: in vivo, mouse; conditions: 200 mg/kg BID for 15 days, Townes SCD mice, vs vehicle; for sVCAM1, Change (decrease): ELISA
Description: Following 15 days of dosing, blood samples were collected from all animals to run in the Hemeox analyzer to generate oxygen affinity curves, complete blood analysis was performed using Idexx hematology Analyzer, and cell sickling assessed as described before. Soluble Vascular Adhesion Molecule 1 levels (sVCAM1) were assessed by Enzyme linked immunosorbent assay (ELISA) from R&D systems. Results are presented below in Tables 7, 8 and 9.

[2] = system: Red Blood Cells (RBCs) from treated animals; experiment: Single dose study in sickle Townes mice: RBC sickling under hypoxia; assay type: in vivo, mouse; conditions: 0.5 h, SCD mice, n=3
Description: as §1, §2
Red Blood Cells (RBCs) from treated animals were diluted to ˜10^7 cells/mL with 300 μL Hemeox solution in a 24-well plate and incubated in a hypoxia chamber, 5% CO2 and 3% O2 for 4 h. Cells were then fixed at room temperature for 30 minutes in sickling fixative solution and stained with TER119 alexa 488 conjugated antibody (BioLegend) for 30 minutes at room temperature, washed and plated at 50,000 cells/well with 200 μL of hemox buffer (TCS Scientific). Data were visualized using Graph Pad Prism (Version 5). Results are expressed as mean±standard error of the mean (SEM). Statistical analysis was made using a non-parametric one-way analysis of variance (ANOVA) followed by a Dunnett's multiple comparison. Significance was accepted when p<0.01.

HbS = target: T1, HbS (Homo sapiens, UniProt P68871+P69905, E7V); experiment: 'R'-'T' assay (conversion of oxy HbS to deoxy HbS under deoxygenating conditions); assay type: biochemical; conditions: 50% inhibition of HbS 'R'-'T' conversion; 3 uM HbS, <1% O2
T1 construct: HbS was obtained from the blood of homozygous S/S patients; from tissue; host or cells: red blood cells of homozygous S/S patients
Outline: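 Oxy HbS diluted to 3 µM in 100 mM potassium phosphate pH 7.4, incubated 1 h at room temperature with compound, then held under <1% O2 for 2 h. Conversion followed by background-corrected 415/430 nm absorbance ratio at 0, 90 and 120 min; percent effect normalized to tucaresol, IC50 from concentration series.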

Hb in human whole blood = target: T2, Hb in human whole blood (Homo sapiens, UniProt P68871+P69905); experiment: Whole blood oxygen affinity assay (Hemox analyzer), human blood; conditions: 1 mM compound, 1 hour at 25 C, relative to DMSO
T2 construct: measured in human, dog, and mouse whole blood; from tissue; host or cells: human whole blood
Excerpt: Whole Blood Oxygen Affinity Assay
Oxygen affinity is a marker of the ability of Hb to bind and release oxygen in solution. It can be determined in whole blood by measuring the percentage of oxygenated and deoxygenated Hb present at a given oxygen concentration. Oxygen affinity is expressed as the p50, the partial pressure of oxygen at which 50% of the Hb in solution has oxygen bound, or the p20, the partial pressure of oxygen at which 20% of the Hb in solution has oxygen bound.
To determine the effects of compounds of the invention on oxygen affinity the p50 and p20 were measured in human, dog, and mouse whole blood using a Hemeox Analyzer (TCS Scientific). The blood was spiked with a compound of the invention to a concentration of 1 mM and incubated for 1 hour at 25 C with constant rotation. A concentration of 1 mM of compound was selected to approximate 20% hemoglobin occupancy in whole blood. Controls with the same concentration of DMSO, but no compound were incubated in the same way at the same time. Following incubation, samples were immediately assayed for oxygen affinity using the Hemox analyzer. Fifty μL of blood sample was diluted into 5 mL of hemox buffer (TCS Scientific), which had been pre-incubated to 37 C. Following dilution, samples were loaded into the analysis chamber, and fully oxygenated using compressed air. Once samples had reached an pO2 of >150 torr, the measurement was initiated by switching to N2, and the percent oxyhemoglobin as a function of partial pressure was recorded. The p20 and p50 of each sample were recorded from the instrument readout. Data are reported as the percent (%) change relative to DMSO according to the following calculations: […]

[3] = single dose 30 mg/kg oral gavage
[4] = single dose 100 mg/kg oral gavage
[5] = single dose 300 mg/kg oral gavage
[6] = single dose 900 mg/kg oral gavage
[7] = single dose 10 mg/kg oral gavage
[8] = single dose 40 mg/kg oral gavage
[9] = single dose 220 mg/kg oral gavage
[10] = single dose 490 mg/kg oral gavage

Structure (SMILES) | sVCAM1, Change (decrease) (Townes SCD mice) [% decrease] | Hb, Change (increase) (Townes SCD mice) [% increase] | Hematocrit, Change (increase) (Townes SCD mice) [% increase] | RBC sickling, Change (decrease) (Townes SCD mice) [% decrease] | RBCs, Change (increase) (Townes SCD mice) [% increase] | Reticulocytes, Change (decrease) (Townes SCD mice) [% decrease] | p20, Change (decrease) (Townes SCD mice) [% decrease] | p50, Change (decrease) (Townes SCD mice) [% decrease] | IC50 (HbS) [µM] | Reduction in p20 (%) Human (Hb in human whole blood) [%] | Reduction in p50 (%) Human (Hb in human whole blood) [%] | further results
C[C@H](Oc1cc2cc(F)cc(F)c2nc1N)c1cc(C(=O)O)ccc1-n1cccn1 [Example 21, 3-{(1S)-1-[(2-amino-6,8-difluoroquinolin-3-yl)oxy]ethyl}-4-(1H-pyrazol-1-yl)benzoic Acid] | 6.57 ± 3.75 | 43.7 ± 9.83 | 29.1 ± 11.2 | 30.8 ± 14.5 | 44.6 ± 9.04 | 32.7 ± 9.37 | 76.1 ± 13.9 | 26.2 ± 9.7 | 4.62 | 25 ± 9 | 14 ± 10 | concentration at 0.5 h [1, 3]: 14.7 µM; concentration at 0.5 h [1, 4]: 303 µM; concentration at 0.5 h [1, 5]: 1140 µM; concentration at 0.5 h [1, 6]: 1500 µM; % Change in RBC Sickling [2, 3]: 2.03%; % Change in RBC Sickling [2, 4]: −0.02%; % Change in RBC Sickling [2, 5]: 24.6%; % Change in RBC Sickling [2, 6]: 29.0%
C[C@H](Oc1cc2cc(F)ccc2nc1N)c1nc(O)ccc1-n1cccn1 [Example 58, 6-{(1S)-1-[(2-amino-6-fluoroquinolin-3-yl)oxy]ethyl}-5-(1H-pyrazol-1-yl)pyridin-2-ol] | 9.98 ± 7.1 | 42.4 ± 4.2 | 30.9 ± 0.7 | 37.8 ± 9.0 | 39.2 ± 9.3 | 54.7 ± 2.4 | 84.4 ± 2.6 | 53.7 ± 21.2 | 4.8 | 24 ± 19 | 12 ± 9 | concentration at 0.5 h [1, 7]: 35.8 µM; concentration at 0.5 h [1, 8]: 285 µM; concentration at 0.5 h [1, 9]: 1450 µM; concentration at 0.5 h [1, 10]: 2870 µM; % Change in RBC Sickling [2, 7]: −6.2%; % Change in RBC Sickling [2, 8]: 4.6%; % Change in RBC Sickling [2, 9]: 50.8%; % Change in RBC Sickling [2, 10]: 48.3%
